This note sets out measurements from patent US20080221200A1, “Combination of Organic Compounds” (priority 2005, published 2008).

The structures appear in SMILES notation.

One assay relates to mice (NOD). Description: Effect on insulitis in NOD mice dosed intraperitoneally. Format: in vivo. As to conditions: intraperitoneal, from 4 weeks of age, 3 times a week for four weeks, assessed at 14 weeks. On the procedure:
To investigate the effect of Vildagliptin or the combination “Vildagliptin+compound A” on insulitis or type I diabetes mellitus, mice (NOD) with a genetic predisposition to develop IDDM (insulin dependent diabetes mellitus) are treated with Vildagliptin or the combination “Vildagliptin+compound A”. The animals are dosed intraperitoneally from 4 weeks of age, 3 times a week for four weeks. Insulitis is assessed at 14 weeks and scored in a table. The mice are scored according to the method of Beales et al. (European Journal of Pharmacology 357 (1998) 221-225. 3 or more (DMSO and PBS) represents severe grade insulitis and 1-3 represents little infiltration (a score of 1 would represent low grade peri-insulitis).

The test system of assay [1] is non-obese diabetic (NOD) mice. Kind of assay: Incidence of insulitis in NOD mice, supplementation in drinking water during pregnancy and lactation. Format: in vivo. As to conditions: maternal drinking water through pregnancy and lactation, examined at 12 weeks of age. From the text:
F. Effect of Vildagliptin and the combination of “Vildagliptin+compound A” on incidence of Insulitis Diabetes-prone non-obese diabetic (NOD) mice in which females develop a 90% rate of autoimmune diabetes by the age of 25 weeks is studied in order to determine the effect of Vildagliptin and the combination of “Vildagliptin+compound A” on insulitis onset and development. Insulitis initiates at 3-5 weeks of age in NOD mice, as leukocytes begin to infiltrate around ducts and venules in both female and male mice. These infiltrates progress toward the islets, which become surrounded by concentric layers of pen-insular lymphocytes (non-destructive peri-insulitis). Destructive intra-islet insulitis then occurs, leading to extensive P cell destruction. All NOD mice display peri-insulitis, whereas intra-insulitis and overt Type 1 diabetes is restricted to about 70-80% of females and about 10-15% of males in the NOD mouse colony used in this instance. […] Mice which are examined and found to have evidence of insulitis, are then further scored as peri-islet (slight), less than 50% area of islet (medium) or more than 50% islet area (heavy), as indicative of the stage and/or severity of insulitis.

For the molecule `N#C[C@@H]1CCCN1C(=O)CNC12CC3CC(CC(O)(C3)C1)C2` [vildagliptin, (S)-1-[(3-hydroxy-1-adamantyl)amino]acetyl-2-cyano-pyrrolidine], the insulitis score result with mice (NOD) is given as “unexpected good results in reducing insulitis”. The “insulitis (histological evidence within pancreatic islets)” value in assay [1] is “unexpected good results in reducing insulitis”.
